Laboratory results as given in patent EP0312245A2, “Polycyclic compounds and pharmaceutical compositions thereof” (NORISTAN HOLDINGS LIMITED, priority 1987, dated 1989).
Where two headings read alike, the source gives them in different places.

Key:
[1] = tested on: guinea-pig papillary muscle; assay: Electrophysiological test: action potential of guinea-pig papillary muscle (microelectrode technique); conditions: for TIME 1 (Shortest time needed to attain suppression) / TIME 2 (Shortest time needed for reversal of effect by washing out of compound): at the listed bath concentration; for DEGREE OF SUPPRESSION: suppression of action potential at the listed bath concentration; for minimal effective concentration: Cavia porcellus
Description: Electrophysiological studies were conducted on guinea-pig papillary muscle.
Using a microelectrode technique, action potentials were measured from guinea-pig papillary muscles. Action potentials were evoked by electrical stimulation (platinum electrode, Grass S88 stimulator, 1 Hz stimulation frequency; voltage, 10% above threshold). […] The preparations were electrically driven (pacing intervals 1 s, duration 2-5 ms). Slow (Ca2+ mediated) action potentials were evoked in a depolarizing solution (22 mmol/l K and 5 mmol/I Ca^2+) at 0,35 Hz stimulation frequency in order to ensure complete removal of inactivation of slow inward current.

[2] = tested on: isolated rabbit ear preparation; assay: Rabbit ear perfusion test (adrenaline-induced tone, perfusion pressure)
Description: Female New Zealand White rabbits (approximately 4kg) were anaesthetised with Sagatal ® (0.5ml/kg).
The central ear artery was cannulated using a 20 G catheter and the ear cut off at its base. Heparinised (5ml, 200 IU;ml) Krebs bicarbonate solution was perfused through the ear to expel the blood. The ear was placed in a warming jacket at 37°C and attached via the arterial catheter to the perfusion pump. Perfusion of the ear with aerated (95% 025% C02)Krebs bicarbonate solution at 37° C was commenced at a rate of 6.5ml/min using a Watson Marlow peristaltic pump. The perfusion pressure was monitored continuously using a pressure transducer (Type 4-327-1221, Consoliated Electrodynamics) coupled to a Devices Recorder.
Following an equilibration period of 15 minutes, increased tone was induced in the preparation by addition of adrenaline (1µg/ml) to the perfusion fluid.
After a stable tone was observed, various concentrations of test compounds were injected into the perfusion fluid and examined for their effect on the perfusion pressure. The effect of vehicle (0.2ml, 50% Krebs 50% ethanol) was also tested on the ear preparation.

[3] = read-out: BATH CONCENTRATION (Lowest concentration of the compound to induce suppression of action potential), Table 4, racemates and optical isomers
[4] = Oryctolagus cuniculus, Table 5, dose 100 µg, read-out: Mean % change in perfusion pressure
[5] = Oryctolagus cuniculus, Table 5, dose 316 µg, read-out: Mean % change in perfusion pressure
[6] = Oryctolagus cuniculus, Table 5, dose 1000 µg, read-out: Mean % change in perfusion pressure
[7] = Oryctolagus cuniculus, Table 5, dose 3160 µg, read-out: Mean % change in perfusion pressure
[8] = read-out: BATH CONCENTRATION (Lowest concentration of the compound to induce suppression of action potential), Table 3, guinea-pig papillary muscle

Row | Compound | TIME 1 (Shortest time needed to attain suppression) ([1]; Table 3) [min] | TIME 2 (Shortest time needed for reversal of effect by washing out of compound) ([1]; Table 3) [min] | DEGREE OF SUPPRESSION ([1]; Table 3) | TIME 1 (Shortest time needed to attain suppression) ([1]; Table 4) [min] | DEGREE OF SUPPRESSION ([1]; Table 4) | also measured
1 | 1(or7)-Methyl-8-(2-phenylethyl)-amino-8,11-oxopentacyclo [5.4.0.0^2,6.0^3,1.0^5,9 ]undecane [Compound 11] | 32 | 35 | partial |  |  | 
2 | CCCCCCCCNC12OC3C4C5CC(C6C5C3C61)C42 (single isomer, unassigned) [(+) -3, 8-η -octylamino-8,11-oxopentacyclo [5.4.0.0^2,6.0^3,10.0^5,9]undecane] |  |  |  | 30 | incomplete | TIME 2 (Shortest time needed for reversal of effect by washing out of compound) ([1]; Table 4): 11 min
3 | c1ccc(CNC23OC4C5C6CC(C7C6C4C72)C53)cc1 (single isomer, unassigned) [(-) -4, 8-benzylamino-8,11-oxopentacyclo [5.4.0.0^2,6.0^3,10.0^5,9]undecane] |  |  |  | 10 | complete | minimal effective concentration [1, 3]: 56.6 µM; TIME 2 (Shortest time needed for reversal of effect by washing out of compound) ([1]; Table 4): 5 min
4 | CCNC12OC3C4C5CC(C6C5C3C61)C42 (racemic) [Compound 13, 8-Ethylamino-8,11-oxopentacyclo [5.4.0.0^2,6.0^3,10.0^5,9]undecane] |  |  |  |  |  | inhibition at 0.1 mg [2, 4]: 6%; inhibition at 0.316 mg [2, 5]: 7%; inhibition at 1 mg [2, 6]: 5.5%; inhibition at 3.16 mg [2, 7]: 11.5%; Mean time taken to return to pre-dose volume ([2]; Table 5, dose 3160 µg): 2.0 min
5 | CCCCNC12OC3C4C5CC(C6C5C3C61)C42 (single isomer, unassigned) [(+) -2, 8-η -butylamino-8,11-oxopentacyclo [5.4.0.0^2,6.0^3,10.0^5,9] undecane] |  |  |  | 25 | very little | 
6 | COc1ccc(CCN(C)CCCC(C#N)(c2ccc(OC)c(OC)c2)C(C)C)cc1OC (stereo not drawn) [Verapamil, reference compound] | 10 | 15 | complete |  |  | minimal effective concentration [1, 8]: 40 µM
7 | CCCCCCCCCCCCNC12OC3C4C5CC(C6C5C3C61)C42 (racemic) [Compound 14, 8-η -Dodecylamino-8,11-oxopentacyclo [5.4.0.0^2,6.0^3,10.0^5,9]undecane] |  |  |  |  |  | inhibition at 0.0316 mg ([2]; Oryctolagus cuniculus, Table 7, dose 31.6 μg, read-out: Mean % change in perfusion pressure): 6.1%; inhibition at 0.1 mg ([2]; Oryctolagus cuniculus, Table 7, dose 100 μg, read-out: Mean % change in perfusion pressure): 12.4%; inhibition at 0.316 mg ([2]; Oryctolagus cuniculus, Table 7, dose 316 μg, read-out: Mean % change in perfusion pressure): 8.7%; inhibition at 1 mg ([2]; Oryctolagus cuniculus, Table 7, dose 1000 μg, read-out: Mean % change in perfusion pressure): 6.6%; inhibition at 3.16 mg ([2]; Oryctolagus cuniculus, Table 7, dose 3160 μg, read-out: Mean % change in perfusion pressure): 7.7%
8 | CCCCCCCCNC12OC3C4C5CC(C6C5C3C61)C42 (single isomer, unassigned) [(-) -3, 8-η -octylamino-8,11-oxopentacyclo [5.4.0.0^2,6.0^3,10.0^5,9]undecane] |  |  |  | 10 | complete | TIME 2 (Shortest time needed for reversal of effect by washing out of compound) ([1]; Table 4): 7 min
9 | 1(or7)-Methyl-8-η-butylamino-8,11-oxopentacyclo[5.4.0.0^2,6.0^3,10.0^5,9]undecane [Compound 8] | 22 | 6 | complete |  |  | 
10 | c1ccc(CCCNC23OC4C5C6CC(C7C6C4C72)C53)cc1 (racemic) [Compound 6, 8-(3-Phenylpropyl)-amino-8,11-oxopentacyclo [5.4.0.0^2,6.0^3,10.0^5,9] undecane] | 18 | 14 | complete |  |  | minimal effective concentration [1, 8]: 50 µM
11 | CCCCNC12OC3C4C5CC(C6C5C3C61)C42 (single isomer, unassigned) [(-) -2, 8-η -butylamino-8,11-oxopentacyclo [5.4.0.0^2,6.0^3,10.0^5,9] undecane] |  |  |  | 25 | little | minimal effective concentration [1, 3]: 130 µM
12 | 1(or 7)-Methyl-8-methylamino-8,11-oxopentacyclo[5.4.0.0^2,6.0^3,10.0^5,9] undecane [Compound 7] | 12 |  | very little |  |  | 
13 | CC(C)CNC12OC3C4C5CC(C6C5C3C61)C42 (racemic) [Compound 15, 8-Isobutylamino-8,11-oxopentacyclo [5.4.0.0^2,60^3,10.0^5,9]-undecane] |  |  |  |  |  | inhibition at 0.1 mg [2, 4]: 6.5%; inhibition at 0.316 mg [2, 5]: 8.5%; inhibition at 1 mg [2, 6]: 7%; inhibition at 3.16 mg [2, 7]: 21%; Mean time taken to return to pre-dose volume ([2]; Table 5, dose 3160 µg): 2.5 min
14 | CCCCNC12OC3C4C5CC(C6C5C3C61)C42 (racemic) [Compound 2, 8-η-Butylamino-8,11-oxopentacyclo[5.4.0.0^2,6 .0^3,10 .0^5,9]undecane] | 29 |  | very little | 25 | little | minimal effective concentration [1, 8]: 150 µM; minimal effective concentration [1, 3]: 150 µM; inhibition at 0.1 mg [2, 4]: 7.5%; inhibition at 0.316 mg [2, 5]: 8%; inhibition at 1 mg [2, 6]: 12%; inhibition at 3.16 mg [2, 7]: 26%; Mean time taken to return to pre-dose volume ([2]; Table 5, dose 1000 µg): 5.5 min; Mean time taken to return to pre-dose volume ([2]; Table 5, dose 3160 µg): 5.75 min
15 | c1ccc(CNC23OC4C5C6CC(C7C6C4C72)C53)cc1 (single isomer, unassigned) [(+) -4, 8-benzylamino-8,11-oxopentacyclo [5.4.0.0^2,6.0^3,10.0^5,9]undecane] |  |  |  | 20 | complete | TIME 2 (Shortest time needed for reversal of effect by washing out of compound) ([1]; Table 4): 15 min
16 | CNC12OC3C4C5CC(C6C5C3C61)C42 (racemic) [Compound 1, 8-Methylamino-8,11-oxopentacyclo[5.4.0.0^2,6 .0^3,10 .0^5,9]-undecane] | 25 |  | very little |  |  | minimal effective concentration [1, 8]: 120 µM
17 | 1 (or7)-Methyl-8-(3-phenylpropyl)-amino-8,11-oxopentacyclo[5.4.0.0^2,6.0^3,10.0^5,9 ]undecane [Compound 12] | 12 | 20 | complete |  |  | 
18 | c1ccc(CNC23OC4C5C6CC(C7C6C4C72)C53)cc1 (racemic) [Compound 4, 8-Benzylamino-8,11-oxopentacyclo[5.4.0.0^2,6 .0^3,10 .0^5,9]undecane] | 15 | 10 | complete | 15 | complete | minimal effective concentration [1, 8]: 20 µM; minimal effective concentration [1, 3]: 20 µM; TIME 2 (Shortest time needed for reversal of effect by washing out of compound) ([1]; Table 4): 10 min
19 | 1(or7)-Methyl-8-benzylamino-8,11-oxopentacyclo [5.4.0.0^2,6.0^3,10.0^5,9 ]undecane [Compound 10] | 20 | 10 | complete |  |  | 
